Measured values taken from BindingDB's records for doi:10.1038/nchembio.2168 (Novartis Institutes, 2016).

What was measured:
[1] = biological target: T1, Serine/threonine-protein kinase WNK1 [1-491] (Homo sapiens, UniProt Q9H4A3); assay: In vitro MBP Phosphorylation Assay (MBP); conditions: pH 7.3; 25 °C
T1 construct: 1-491
Method: (§1) Each well of the MBP-coated ScintiPlates held 100 ul of a solution containing 20 mM HEPES pH 7.3, 5 mM MnCl2 (WNK1 and WNK4) or 3 mM MnCl2 (WNK2 and WNK3), 0.01% Tween-20 (WNK1, WNK3 and WNK4) or 0.02% Tween-20 (WNK2), 1 mM TCEP, 2% DMSO, 1 uM ATP (WNK1, WNK3 and WNK4) or 2 uM ATP (WNK2), 1 uCi [gamma-33P]ATP (WNK1, WNK2, WNK4) or 0.25 uCi [gamma-33P]ATP (WNK3), WNK kinase enzyme (5 nM WNK1, 10 nM WNK2, 5 nM WNK3 or 10 nM WNK4) and compound at the desired concentration. The plate was sealed with a clear adhesive cover and mixed for 20 s at 800 r.p.m. on a bench top plate shaker. The plate was then placed in a 25 °C shaking incubator at 175 r.p.m for 3 h (WNK1 and WNK4), 2 h (WNK3) or 1 h (WNK2). The kinase reaction was stopped by the addition of 50 ul of 45 mM EDTA, 0.01% Tween-20, and 20 mM HEPES, pH 7.3. The content of each well was then aspirated, and the well was washed three times with 300 ul of 150 mM NaCl, 0.02% Tween-20, and 50 mM Tris-HCl pH 7.4. Incorporation of 33P into the bound MBP substrate was measured using a MicroBeta TriLux LSC and Luminescence plate counter.

[2] = biological target: T2, Serine/threonine-protein kinase WNK1 [1-434] (Homo sapiens, UniProt Q9H4A3); assay: In vitro MBP Phosphorylation Assay (MBP); conditions: pH 7.3; 25 °C
T2 construct: 1-434
Method: as §1

[3] = biological target: T3, Serine/threonine-protein kinase WNK1 [1-444] (Homo sapiens, UniProt Q9H4A3); assay: In vitro MBP Phosphorylation Assay (MBP); conditions: pH 7.3; 25 °C
T3 construct: 1-444
Method: as §1

[4] = biological target: T4, Serine/threonine-protein kinase WNK1 [166-489] (Homo sapiens, UniProt Q9H4A3); assay: In vitro MBP Phosphorylation Assay (MBP); conditions: pH 7.3; 25 °C
T4 construct: 166-489
Method: as §1

[5] = biological target: T1, Serine/threonine-protein kinase WNK1 [1-491]; assay: In vitro OSR1 Phosphorylation Assay (OSR1); conditions: pH 7.3; 4 °C
Method: 0.2 nM GST-hWNK1(1-491) (Carna Biosciences, cat# 05-179); 3.5 ug/ml GST-OSR1; 20 mM HEPES; 0.01% Tween; 5 mM MnCl2; 1 mM TCEP; 2% DMSO; 0.5 uM ATP, pH 7.3 (total volume 40 ul) were incubated for 15 min at room temperature. Samples were […] mixed with Laemmli sample buffer and resolved on a 10% Tris-glycine gel, and transferred to nitrocellulose. Membranes were blocked in 5% non-fat milk dissolved in Tris-buffered saline with tween (TBST) for 30 min, washed 3x for 10 min in TBST and incubated with phospho-OSR1 antibody (1:1,000; see Reagents section) at […] overnight. Blots were again washed with TBST and incubated with HRP-conjugated anti-rabbit IgG (1:2,500; catalog # 7074, Cell Signaling) at room temperature for 30 min. Blots were again washed and developed with SuperSignal West Femto Maximum Sensitivity Chemiluminescent Substrate for HRP (Thermo Scientific), and quantified with a Fujifilm LAS-3000 Luminescent Image Analyzer.

T1 sequence (Q9H4A3 1-491): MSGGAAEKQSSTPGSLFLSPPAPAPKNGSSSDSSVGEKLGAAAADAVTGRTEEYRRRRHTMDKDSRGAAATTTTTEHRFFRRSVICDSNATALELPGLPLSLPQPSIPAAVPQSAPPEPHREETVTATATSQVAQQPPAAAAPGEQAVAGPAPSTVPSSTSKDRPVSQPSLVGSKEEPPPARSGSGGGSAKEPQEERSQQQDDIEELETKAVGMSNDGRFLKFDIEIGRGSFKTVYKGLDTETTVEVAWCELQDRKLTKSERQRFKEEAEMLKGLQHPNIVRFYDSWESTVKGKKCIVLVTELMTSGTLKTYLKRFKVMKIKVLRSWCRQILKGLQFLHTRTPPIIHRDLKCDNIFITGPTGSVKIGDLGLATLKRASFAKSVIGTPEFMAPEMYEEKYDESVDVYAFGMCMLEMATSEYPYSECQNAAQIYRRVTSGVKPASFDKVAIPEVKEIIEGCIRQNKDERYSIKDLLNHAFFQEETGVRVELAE
T2 sequence (Q9H4A3 1-434): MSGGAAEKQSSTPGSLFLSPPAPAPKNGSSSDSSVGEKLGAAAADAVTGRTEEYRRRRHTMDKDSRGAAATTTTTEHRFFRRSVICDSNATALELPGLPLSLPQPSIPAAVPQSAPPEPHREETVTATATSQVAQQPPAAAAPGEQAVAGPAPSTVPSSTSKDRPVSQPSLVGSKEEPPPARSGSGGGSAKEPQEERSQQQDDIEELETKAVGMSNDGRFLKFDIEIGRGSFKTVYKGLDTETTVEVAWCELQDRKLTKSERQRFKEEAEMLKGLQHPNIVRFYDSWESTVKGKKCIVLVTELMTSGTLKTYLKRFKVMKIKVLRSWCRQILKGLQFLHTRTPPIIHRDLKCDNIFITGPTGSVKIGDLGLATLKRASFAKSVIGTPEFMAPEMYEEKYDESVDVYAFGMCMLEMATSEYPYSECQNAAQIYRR
T3 sequence (Q9H4A3 1-444): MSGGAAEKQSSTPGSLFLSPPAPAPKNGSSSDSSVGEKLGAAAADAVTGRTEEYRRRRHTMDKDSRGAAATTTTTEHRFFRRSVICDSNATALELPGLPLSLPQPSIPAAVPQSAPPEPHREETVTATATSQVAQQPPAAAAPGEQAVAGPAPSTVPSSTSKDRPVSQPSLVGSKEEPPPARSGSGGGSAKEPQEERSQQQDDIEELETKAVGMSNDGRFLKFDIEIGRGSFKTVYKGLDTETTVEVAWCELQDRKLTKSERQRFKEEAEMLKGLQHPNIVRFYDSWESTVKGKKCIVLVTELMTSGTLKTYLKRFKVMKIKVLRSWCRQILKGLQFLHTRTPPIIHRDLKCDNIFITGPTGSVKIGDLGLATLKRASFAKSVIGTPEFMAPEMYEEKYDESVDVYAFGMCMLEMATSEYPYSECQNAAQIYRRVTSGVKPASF
T4 sequence (Q9H4A3 166-489): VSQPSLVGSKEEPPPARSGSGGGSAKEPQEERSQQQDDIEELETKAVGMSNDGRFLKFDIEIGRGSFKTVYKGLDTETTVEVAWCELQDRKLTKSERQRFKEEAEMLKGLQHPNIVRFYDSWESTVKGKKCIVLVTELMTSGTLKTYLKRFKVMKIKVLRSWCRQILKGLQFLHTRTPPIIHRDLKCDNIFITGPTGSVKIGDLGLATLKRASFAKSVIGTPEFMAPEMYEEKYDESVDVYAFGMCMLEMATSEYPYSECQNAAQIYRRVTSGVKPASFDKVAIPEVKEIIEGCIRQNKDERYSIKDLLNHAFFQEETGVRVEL

IC50 [1] | IC50 [2] | IC50 [3] | IC50 [4] | IC50 [5] | Structure (SMILES)
856 nM |  |  |  |  | COc1ccc(CC(=O)N2CCC(n3cncc3C(=O)NCCc3ccccc3)C2)cc1 [(R)-1-(1-(2-(4-methoxyphenyl)acetyl)pyrrolidin-3-yl)-N-phenethyl-1H-imidazole-5-carboxamide (1)]
5 nM | 6 nM | 9 nM | 1 nM | 41 nM | CC(C)(C)NC(=O)c1cncn1C1CCN(c2ccc(-c3nnc(C(F)(F)F)o3)cc2)CC1 [WNK463 (2)]
